Results taken from PubChem BioAssay (NCI).
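Cultured in 96-well plates, cells were exposed to test compound for 48 hours across five concentrations. TGI: total growth inhibition.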

Legend:
Test in all cases: growth of human tumour cells (NCI), 48 h
SN12C renal = system: SN12C renal
MCF7 breast = system: MCF7 breast
DU-145 prostate = system: DU-145 prostate
SK-MEL-28 melanoma = system: SK-MEL-28 melanoma
M14 melanoma = system: M14 melanoma
RXF 393 renal = system: RXF 393 renal
NCI/ADR-RES ovarian = system: NCI/ADR-RES ovarian
U251 CNS = system: U251 CNS
MALME-3M melanoma = system: MALME-3M melanoma
UACC-62 melanoma = system: UACC-62 melanoma
COLO 205 colon = system: COLO 205 colon
SR leukemia = system: SR leukemia
LOX IMVI melanoma = system: LOX IMVI melanoma
SNB-75 CNS = system: SNB-75 CNS
MDA-MB-435 = system: MDA-MB-435
SK-MEL-5 melanoma = system: SK-MEL-5 melanoma
SF-295 CNS = system: SF-295 CNS
OVCAR-5 ovarian = system: OVCAR-5 ovarian
UACC-257 melanoma = system: UACC-257 melanoma
NCI-H460 lung = system: NCI-H460 lung
OVCAR-8 ovarian = system: OVCAR-8 ovarian
NCI-H522 lung = system: NCI-H522 lung
A549 NSCLC = system: A549 NSCLC
RPMI-8226 leukemia = system: RPMI-8226 leukemia
HOP-92 NSCLC = system: HOP-92 NSCLC
K-562 leukemia = system: K-562 leukemia
SK-OV-3 ovarian = system: SK-OV-3 ovarian
SK-MEL-2 melanoma = system: SK-MEL-2 melanoma
HS 578T breast = system: HS 578T breast
NCI-H23 lung = system: NCI-H23 lung
MOLT-4 leukemia = system: MOLT-4 leukemia
CCRF-CEM leukemia = system: CCRF-CEM leukemia
SF-268 CNS = system: SF-268 CNS
HCC-2998 colon = system: HCC-2998 colon
MDA-N = system: MDA-N
OVCAR-3 ovarian = system: OVCAR-3 ovarian
IGROV1 ovarian = system: IGROV1 ovarian
BT-549 breast = system: BT-549 breast
UO-31 renal = system: UO-31 renal
TK-10 renal = system: TK-10 renal
PC-3 prostate = system: PC-3 prostate
SW-620 colon = system: SW-620 colon
MDA-MB-231 breast = system: MDA-MB-231 breast
SF-539 CNS = system: SF-539 CNS
ACHN renal = system: ACHN renal
HCT-116 colon = system: HCT-116 colon
CAKI-1 renal = system: CAKI-1 renal
EKVX NSCLC = system: EKVX NSCLC
HT29 colon = system: HT29 colon
SNB-19 CNS = system: SNB-19 CNS
OVCAR-4 ovarian = system: OVCAR-4 ovarian
786-0 renal = system: 786-0 renal
HCT-15 colon = system: HCT-15 colon
HOP-62 NSCLC = system: HOP-62 NSCLC
A498 renal = system: A498 renal
NCI-H226 lung = system: NCI-H226 lung
HL-60(TB) leukemia = system: HL-60(TB) leukemia

`CCOC(=O)c1nc2c3c(ncn2n1)Oc1c(c(-c2ccccc2)nn1-c1ccccc1)C3c1ccc(OC)c(OC)c1` (stereo not drawn) showed a TGI (SN12C renal) of over 100 µM, a TGI (MCF7 breast) of over 100 µM and a TGI (DU-145 prostate) of over 100 µM. It also gave a TGI (SK-MEL-28 melanoma) of over 100 µM, a TGI (M14 melanoma) of over 100 µM and a TGI (RXF 393 renal) of 91.4 µM. For the same molecule, the TGI (NCI/ADR-RES ovarian) was over 100 µM, the TGI (U251 CNS) was over 100 µM and the TGI (MALME-3M melanoma) was over 100 µM. It also gave a TGI (UACC-62 melanoma) of over 100 µM, a TGI (COLO 205 colon) of over 100 µM and a TGI (SR leukemia) of over 100 µM. It also gave a TGI (LOX IMVI melanoma) of over 100 µM, a TGI (SNB-75 CNS) of 66.6 µM and a TGI (MDA-MB-435) of over 100 µM. The TGI (SK-MEL-5 melanoma) was over 100 µM, the TGI (SF-295 CNS) was over 100 µM and the TGI (OVCAR-5 ovarian) was over 100 µM. The TGI (UACC-257 melanoma) was over 100 µM, the TGI (NCI-H460 lung) was over 100 µM and the TGI (OVCAR-8 ovarian) was 82.5 µM. It also gave a TGI (NCI-H522 lung) of over 100 µM, a TGI (A549 NSCLC) of over 100 µM and a TGI (RPMI-8226 leukemia) of over 100 µM. For the same molecule, the TGI (HOP-92 NSCLC) was over 100 µM, the TGI (K-562 leukemia) was over 100 µM and the TGI (SK-OV-3 ovarian) was over 100 µM. For the same molecule, the TGI (SK-MEL-2 melanoma) was over 100 µM, the TGI (HS 578T breast) was 38 µM and the TGI (NCI-H23 lung) was over 100 µM. It also gave a TGI (MOLT-4 leukemia) of over 100 µM, a TGI (CCRF-CEM leukemia) of over 100 µM and a TGI (SF-268 CNS) of 71.1 µM. It also gave a TGI (HCC-2998 colon) of over 100 µM, a TGI (MDA-N) of over 100 µM and a TGI (OVCAR-3 ovarian) of over 100 µM. The TGI (IGROV1 ovarian) was over 100 µM, the TGI (BT-549 breast) was over 100 µM and the TGI (UO-31 renal) was over 100 µM. For the same molecule, the TGI (TK-10 renal) was over 100 µM, the TGI (PC-3 prostate) was over 100 µM and the TGI (SW-620 colon) was over 100 µM. For the same molecule, the TGI (MDA-MB-231 breast) was over 100 µM, the TGI (SF-539 CNS) was 26.8 µM and the TGI (ACHN renal) was over 100 µM. For the same molecule, the TGI (HCT-116 colon) was over 100 µM, the TGI (CAKI-1 renal) was over 100 µM and the TGI (EKVX NSCLC) was over 100 µM. It also gave a TGI (HT29 colon) of over 100 µM, a TGI (SNB-19 CNS) of 82.4 µM and a TGI (OVCAR-4 ovarian) of 30.4 µM. For the same molecule, the TGI (786-0 renal) was over 100 µM, the TGI (HCT-15 colon) was over 100 µM and the TGI (HOP-62 NSCLC) was 48.5 µM.
Work on `Cc1c2c(n3c(nc4ccccc43)c1C#N)N(c1ccc(Cl)cc1)CC2` yielded a TGI (SN12C renal) of over 100 µM, a TGI (MCF7 breast) of over 100 µM and a TGI (DU-145 prostate) of over 100 µM. It also gave a TGI (SK-MEL-28 melanoma) of over 100 µM, a TGI (M14 melanoma) of over 100 µM and a TGI (RXF 393 renal) of over 100 µM. It also gave a TGI (NCI/ADR-RES ovarian) of over 100 µM, a TGI (U251 CNS) of over 100 µM and a TGI (MALME-3M melanoma) of over 100 µM. For the same molecule, the TGI (UACC-62 melanoma) was over 100 µM, the TGI (COLO 205 colon) was over 100 µM and the TGI (LOX IMVI melanoma) was over 100 µM. It also gave a TGI (SNB-75 CNS) of over 100 µM, a TGI (MDA-MB-435) of over 100 µM and a TGI (SK-MEL-5 melanoma) of over 100 µM. It also gave a TGI (SF-295 CNS) of over 100 µM, a TGI (A498 renal) of over 100 µM and a TGI (OVCAR-5 ovarian) of over 100 µM. The TGI (UACC-257 melanoma) was over 100 µM, the TGI (NCI-H460 lung) was over 100 µM and the TGI (NCI-H226 lung) was over 100 µM. It also gave a TGI (OVCAR-8 ovarian) of over 100 µM, a TGI (NCI-H522 lung) of over 100 µM and a TGI (A549 NSCLC) of over 100 µM. It also gave a TGI (HOP-92 NSCLC) of over 100 µM, a TGI (K-562 leukemia) of over 100 µM and a TGI (SK-OV-3 ovarian) of over 100 µM. For the same molecule, the TGI (SK-MEL-2 melanoma) was over 100 µM, the TGI (HS 578T breast) was over 100 µM and the TGI (NCI-H23 lung) was over 100 µM. For the same molecule, the TGI (CCRF-CEM leukemia) was over 100 µM, the TGI (SF-268 CNS) was over 100 µM and the TGI (HCC-2998 colon) was over 100 µM. It also gave a TGI (MDA-N) of over 100 µM, a TGI (OVCAR-3 ovarian) of over 100 µM and a TGI (IGROV1 ovarian) of over 100 µM. For the same molecule, the TGI (BT-549 breast) was over 100 µM, the TGI (UO-31 renal) was over 100 µM and the TGI (TK-10 renal) was over 100 µM. For the same molecule, the TGI (PC-3 prostate) was over 100 µM, the TGI (SW-620 colon) was over 100 µM and the TGI (MDA-MB-231 breast) was over 100 µM. For the same molecule, the TGI (SF-539 CNS) was over 100 µM, the TGI (ACHN renal) was over 100 µM and the TGI (HL-60(TB) leukemia) was over 100 µM. For the same molecule, the TGI (HCT-116 colon) was over 100 µM, the TGI (CAKI-1 renal) was over 100 µM and the TGI (EKVX NSCLC) was over 100 µM. The TGI (HT29 colon) was over 100 µM, the TGI (SNB-19 CNS) was over 100 µM and the TGI (OVCAR-4 ovarian) was over 100 µM. The TGI (786-0 renal) was over 100 µM, the TGI (HCT-15 colon) was over 100 µM and the TGI (HOP-62 NSCLC) was over 100 µM.
